Experimental data taken from PubChem BioAssay AID328 (DTP/NCI, 2004).
Where “and” joins values, the source holds several entries; their conditions need not be identical. Identical values can stand only once. Inconclusive results and toxic doses are left out.

System: BDF1 mice, P388 leukemia ip, median survival T/C
Assay: NCI In Vivo Anticancer Drug Screen. Data for tumor model P388 Leukemia (intraperitoneal) in B6D2F1 (BDF1) mice
Details: endpoint: median survival time, higher = longer survival
Outline: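 Vehicle-dosed animals serve as the reference; survival of compound-dosed, tumour-implanted mice is divided by it.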

[1] = dose: 100.0 mg/kg/injection, schedule: Q01DX001 (ip), vehicle: Klucel (hydroxypropylcellulose) (HPC)
[2] = dose: 200.0 mg/kg/injection, schedule: Q01DX001 (ip), vehicle: Klucel (hydroxypropylcellulose) (HPC)
[3] = dose: 50.0 mg/kg/injection, schedule: Q01DX009 (ip), vehicle: Klucel (hydroxypropylcellulose) (HPC)
[4] = dose: 100.0 mg/kg/injection, schedule: Q01DX009 (ip), vehicle: Klucel (hydroxypropylcellulose) (HPC)
[5] = dose: 200.0 mg/kg/injection, schedule: Q01DX009 (ip), vehicle: Klucel (hydroxypropylcellulose) (HPC)
[6] = dose: 50.0 mg/kg/injection, schedule: Q01DX009 (ip), vehicle: saline with Tween-80
[7] = dose: 100.0 mg/kg/injection, schedule: Q01DX009 (ip), vehicle: saline with Tween-80
[8] = dose: 100.0 mg/kg/injection, schedule: Q04DX003 (ip), vehicle: Klucel (hydroxypropylcellulose) (HPC)
[9] = dose: 200.0 mg/kg/injection, schedule: Q04DX003 (ip), vehicle: Klucel (hydroxypropylcellulose) (HPC)
[10] = dose: 400.0 mg/kg/injection, schedule: Q01DX009 (ip), vehicle: Klucel (hydroxypropylcellulose) (HPC)
[11] = dose: 400.0 mg/kg/injection, schedule: Q04DX003 (ip), vehicle: Klucel (hydroxypropylcellulose) (HPC)
[12] = dose: 25.0 mg/kg/injection, schedule: Q01DX009 (ip), vehicle: saline with Tween-80
[13] = dose: 50.0 mg/kg/injection, schedule: Q01DX009 (ip), vehicle: saline
[14] = dose: 50.0 mg/kg/injection, schedule: Q04DX003 (ip), vehicle: saline
[15] = dose: 100.0 mg/kg/injection, schedule: Q04DX003 (ip), vehicle: saline
[16] = dose: 200.0 mg/kg/injection, schedule: Q04DX003 (ip), vehicle: saline

With `C=CCc1ccc(OCCOC(=O)Nc2cccc(SC)c2)c(OC)c1` the T/C (dose: 12.5 mg/kg/injection, schedule: Q01DX009 (ip), vehicle: DMSO) was 90 % of control, the T/C (dose: 25.0 mg/kg/injection, schedule: Q01DX009 (ip), vehicle: DMSO) was 107 % of control and the T/C (dose: 50.0 mg/kg/injection, schedule: Q01DX009 (ip), vehicle: DMSO) was 93 % of control.

With `C#CC(O)C(CC)CCCC` (stereo not given) the T/C (dose: 100.0 mg/kg/injection, schedule: Q04DX003 (ip), vehicle: saline with Tween-80) was 100 % of control, the T/C (dose: 200.0 mg/kg/injection, schedule: Q04DX003 (ip), vehicle: saline with Tween-80) was 100 % of control and the T/C (dose: 400.0 mg/kg/injection, schedule: Q04DX003 (ip), vehicle: saline with Tween-80) was 100 % of control.

In the case of `Clc1nnc(Nc2ccccc2)c2ccccc12`, the T/C [1] was 100 % of control, the T/C [2] was 91 % of control and the T/C (dose: 400.0 mg/kg/injection, schedule: Q01DX001 (ip), vehicle: Klucel (hydroxypropylcellulose) (HPC)) was 104 % of control.

`CC1N2C3(c4ccccc4)OC(c4ccccc4)(c4ccccc43)C12c1ccccc1` (stereo not given) was tested, and the T/C [3] was 104 % of control, the T/C [4] was 100 % of control and the T/C [5] was 89 % of control.

`Cc1cc2nc[nH]c(=O)n2n1` was tested, and the T/C [6] was 110 % of control and the T/C [7] was 90 % of control.

`S=C1NC(c2ccccc2)NC(c2ccccc2)S1` (stereo not given) was tested, and the T/C [1] was 95 % of control, the T/C [4] was 111 % of control and the T/C [8] was 91 % of control and 100 % of control. The T/C [2] was 95 % of control, the T/C [5] was 111 % of control and the T/C [9] was 91 % of control and 108 % of control. For the same compound, the T/C [10] was 111 % of control and the T/C [11] was 87 % of control and 108 % of control.

With `CC(C)=CCc1cc(O)ccc1O` the T/C (dose: 6.25 mg/kg/injection, schedule: Q01DX009 (ip), vehicle: saline with Tween-80) was 108 % of control, the T/C [12] was 112 % of control and the T/C [6] was 101 % of control.

In the case of `CCOC(=O)C(Br)C(Br)C(=O)OCC` (stereo not given), the T/C [6] was 89 % of control and the T/C [7] was 104 % of control.

In the case of `O=C1/C(=C/c2ccc(Cl)cc2Cl)CCC/C1=C\c1ccc(Cl)cc1Cl`, the T/C [12] was 88 % of control, the T/C [6] was 100 % of control and the T/C [7] was 88 % of control.

In the case of `O=C(NCCCl)Nc1cccc2cc3ccccc3cc12`, the T/C [8] was 100 % of control, the T/C [9] was 95 % of control and the T/C [11] was 90 % of control.

`Cc1ccc(S(=O)(=O)N/N=C/c2ccncc2)cc1` was tested, and the T/C (dose: 12.5 mg/kg/injection, schedule: Q01DX009 (ip), vehicle: other) was 110 % of control, the T/C (dose: 25.0 mg/kg/injection, schedule: Q01DX009 (ip), vehicle: other) was 117 % of control and the T/C (dose: 50.0 mg/kg/injection, schedule: Q01DX009 (ip), vehicle: other) was 119 % of control. For the same compound, the T/C (dose: 200.0 mg/kg/injection, schedule: Q01DX009 (ip), vehicle: other) was 155 % of control.

In the case of `NNC(=O)c1ccncc1`, the T/C [13] was 110 % of control, the T/C [14] was 105 % of control and the T/C [15] was 105 % of control. The T/C [16] was 100 % of control.

In the case of `CCOC(=O)/C(C#N)=C/C=C1\C=CC=CN1C`, the T/C [6] was 90 % of control.

With `O=C1COc2ccccc2N1` the T/C [1] was 113 % of control and the T/C [2] was 100 % of control.

`CC1(C)CC(=O)C2OC2(C)C1` (stereo not given) was tested, and the T/C [4] was 100 % of control, the T/C [8] was 104 % of control and the T/C [5] was 90 % of control. The T/C [9] was 95 % of control, the T/C [10] was 109 % of control and the T/C [11] was 108 % of control.

With `C/C(N=Nc1ccccc1)=N\Nc1cccc(C(F)(F)F)c1` the T/C [3] was 100 % of control, the T/C [4] was 105 % of control and the T/C [8] was 104 % of control. The T/C [5] was 100 % of control, the T/C [9] was 104 % of control and the T/C [11] was 108 % of control.

`C[N+](C)(C)CCO` was tested, and the T/C [15] was 100 % of control, the T/C [16] was 105 % of control and the T/C (dose: 400.0 mg/kg/injection, schedule: Q04DX003 (ip), vehicle: saline) was 110 % of control.

For `CC(C)c1ccc(N2C(N)=NC(N)=NC2(C)C)cc1`, the T/C (dose: 12.5 mg/kg/injection, schedule: Q01DX005 (ip), vehicle: Klucel (hydroxypropylcellulose) (HPC)) was 110 % of control, the T/C (dose: 25.0 mg/kg/injection, schedule: Q01DX005 (ip), vehicle: Klucel (hydroxypropylcellulose) (HPC)) was 108 % of control and the T/C (dose: 50.0 mg/kg/injection, schedule: Q01DX005 (ip), vehicle: Klucel (hydroxypropylcellulose) (HPC)) was 105 % of control.

In the case of `CCCCCC(C[N+](C)(C)C)C(=O)/C=C/c1ccc(Cl)cc1` (stereo not given), the T/C (dose: 6.25 mg/kg/injection, schedule: Q01DX001 (ip), vehicle: Klucel (hydroxypropylcellulose) (HPC)) was 113 % of control, the T/C (dose: 12.5 mg/kg/injection, schedule: Q01DX001 (ip), vehicle: Klucel (hydroxypropylcellulose) (HPC)) was 100 % of control and the T/C (dose: 25.0 mg/kg/injection, schedule: Q01DX001 (ip), vehicle: Klucel (hydroxypropylcellulose) (HPC)) was 101 % of control. The T/C (dose: 50.0 mg/kg/injection, schedule: Q01DX001 (ip), vehicle: Klucel (hydroxypropylcellulose) (HPC)) was 88 % of control.

`CC(=O)O[C@H]1CC[C@H]2[C@@H]3CC[C@H]4C[C@@H]5[C@H](C[C@]4(C)[C@H]3CC[C@]12C)C5(F)F` was tested, and the T/C (dose: 3.12 mg/kg/injection, schedule: Q04DX003 (ip), vehicle: Klucel (hydroxypropylcellulose) (HPC)) was 100 % of control, the T/C (dose: 6.25 mg/kg/injection, schedule: Q01DX009 (ip), vehicle: Klucel (hydroxypropylcellulose) (HPC)) was 88 % of control and the T/C (dose: 6.25 mg/kg/injection, schedule: Q04DX003 (ip), vehicle: Klucel (hydroxypropylcellulose) (HPC)) was 100 % of control. For the same compound, the T/C (dose: 12.5 mg/kg/injection, schedule: Q01DX009 (ip), vehicle: Klucel (hydroxypropylcellulose) (HPC)) was 92 % of control, the T/C (dose: 12.5 mg/kg/injection, schedule: Q04DX003 (ip), vehicle: Klucel (hydroxypropylcellulose) (HPC)) was 100 % of control and the T/C (dose: 25.0 mg/kg/injection, schedule: Q01DX009 (ip), vehicle: Klucel (hydroxypropylcellulose) (HPC)) was 100 % of control. The T/C [8] was 100 % of control.

With `Cc1cc(C)c[n+](C2=C([O-])C(=O)C([n+]3cc(C)cc(C)c3)=C([O-])C2=O)c1` the T/C [6] was 97 % of control, the T/C [7] was 97 % of control and the T/C (dose: 200.0 mg/kg/injection, schedule: Q01DX009 (ip), vehicle: saline with Tween-80) was 95 % of control.

In the case of `O=C1c2ccccc2C(=O)C1(Cl)C(Cl)c1ccc([N+](=O)[O-])cc1` (stereo not given), the T/C [4] was 105 % of control, the T/C [5] was 90 % of control and the T/C [10] was 100 % of control.

`CC(O)C1CCCNC1` (stereo not given) was tested, and the T/C [13] was 110 % of control, the T/C (dose: 100.0 mg/kg/injection, schedule: Q01DX009 (ip), vehicle: saline) was 100 % of control and the T/C [15] was 108 % of control. The T/C [16] was 104 % of control.

For `C[C@@H]1C[C@H]2[C@@H]3CCC4=CC(=O)C=C[C@]4(C)[C@@]3(F)[C@@H](O)C[C@]2(C)[C@@]1(O)C(=O)CO`, the T/C (dose: 6.25 mg/kg/injection, schedule: Q04DX003 (ip), vehicle: saline) was 104 % of control, the T/C (dose: 12.5 mg/kg/injection, schedule: Q04DX003 (ip), vehicle: saline) was 109 % of control and the T/C (dose: 16.5 mg/kg/injection, schedule: Q04DX003 (ip), vehicle: saline) was 112 % of control and 122 % of control. The T/C (dose: 25.0 mg/kg/injection, schedule: Q04DX003 (ip), vehicle: saline sonified) was 110 % of control, the T/C (dose: 25.0 mg/kg/injection, schedule: Q04DX003 (ip), vehicle: saline) was 100 % of control and 113 % of control and the T/C (dose: 37.5 mg/kg/injection, schedule: Q04DX003 (ip), vehicle: saline) was 109 % of control and 112 % of control. The T/C (dose: 50.0 mg/kg/injection, schedule: Q04DX003 (ip), vehicle: saline sonified) was 110 % of control, the T/C [14] was 90 % of control and the T/C (dose: 55.0 mg/kg/injection, schedule: Q04DX003 (ip), vehicle: saline) was 110 % of control. The T/C (dose: 85.0 mg/kg/injection, schedule: Q04DX003 (ip), vehicle: saline) was 119 % of control and the T/C (dose: 100.0 mg/kg/injection, schedule: Q04DX003 (ip), vehicle: saline sonified) was 100 % of control.

For `CC[C@@H]1C[C@@H]2CN3CCc4c([nH]c5ccc(OC)cc45)C(C(=O)OC)(C2)C13`, the T/C [3] was 108 % of control, the T/C [4] was 113 % of control and the T/C [5] was 113 % of control.

With `Cc1ccc(N)c(Br)c1` the T/C [12] was 100 % of control, the T/C [6] was 109 % of control and the T/C [7] was 118 % of control.

With `O=c1oc2ccc(Cl)cc2n1Cc1ccc(Cl)cc1` the T/C (dose: 50.0 mg/kg/injection, schedule: Q01DX005 (ip), vehicle: saline with Tween-80) was 99 % of control, the T/C (dose: 100.0 mg/kg/injection, schedule: Q01DX005 (ip), vehicle: saline with Tween-80) was 92 % of control and the T/C (dose: 200.0 mg/kg/injection, schedule: Q01DX005 (ip), vehicle: saline with Tween-80) was 92 % of control.

In the case of `C[P+](C)(c1ccccc1)c1ccccc1`, the T/C (dose: 6.25 mg/kg/injection, schedule: Q04DX003 (ip), vehicle: saline with Tween-80) was 100 % of control and the T/C (dose: 12.5 mg/kg/injection, schedule: Q04DX003 (ip), vehicle: saline with Tween-80) was 104 % of control.
